Results on twelve molecules are retold here after paper PMC12697872, “Rethinking the AI Paradigm for Solubility Prediction of Drug‑Like Compounds with Dual‐Perspective Modeling and Experimental Validation” (Advanced Science, 2025).

The conditions of data set [1]: CASR-2 dataset, aqueous solubility class 0-6; cited from earlier work.
The conditions of data set [2]: cited from earlier work.
The conditions of data set [3]: cited from earlier work; for LogS(mol/L): SC2-2 dataset (Second Solubility Challenge, loose subset), aqueous solubility; for Class: SC2-2 dataset, aqueous solubility class 0-6.
The nature of data set [4]: 1H NMR on the saturated aqueous solution. It counts as physicochemical. As to the method:
Each compound was tested in triplicate to ensure accuracy.

SMILES strings stand for the structures. Where two headings read alike, the source gives them in different places.

As to `[2H]c1c([2H])c([2H])c2c(c1[2H])C([2H])([2H])C([2H])([2H])C([2H])([2H])C2([2H])[2H]`, the Class in data set [1] is 3 (Sparingly soluble (3)). In addition, the LogS in data set [2] (CASR-1 curated training data, aqueous, 25 ± 2 °C) was -0.8582 mol/L. Besides, in data set [2] (sheet Uncurated data, compiled records), the “LogS(mol/L)” value is given as -0.8582 mol/L.

For `COc1cc(/C=C/C(=O)CC(=O)/C=C/c2ccc(O)c(OC)c2)ccc1O`, in data set [3], the “LogS(mol/L)” value is recorded as -5.36 mol/L and the Class is given as 6 (Practically insoluble or insoluble (6)).

Consider `CCCC(=O)OC[C@@H](OC(=O)CCC)[C@@H](OC(=O)CCC)[C@H](Cn1c2nc(=O)[nH]c(=O)c-2nc2cc(C)c(C)cc21)OC(=O)CCC` [riboflavin tetrabutyrate], for which, in data set [4], the “Solute in saturated aqueous solution by 1H NMR” value is reported as “no existence of solute in the solution”.

Regarding `COc1cc(NS(=O)(=O)c2ccc(N)cc2)nc(OC)n1` [COc1cc(NS(=O)(=O)c2ccc(N)cc2)nc(OC)n1], in data set [3], the “LogS(mol/L)” value is -3.74 mol/L and the Class is recorded as 6 (Practically insoluble or insoluble (6)).

In the case of `CC(C)N=c1cc2n(-c3ccc(Cl)cc3)c3ccccc3nc-2cc1Nc1ccc(Cl)cc1`, in data set [3], the “LogS(mol/L)” value is given as -9.05 mol/L and the Class is 6 (Practically insoluble or insoluble (6)).

On to `CC[C@]1(c2ccccc2)OC[C@H]([C@@H]2CCCCN2)O1`, for which, in data set [3], the “LogS(mol/L)” value was -1.96 mol/L and the Class is reported as 4 (Slightly soluble (4)).

Turning to `CC#C[C@]1(O)CC[C@H]2[C@@H]3CCC4=CC(=O)CCC4=C3[C@@H](c3ccc(N(C)C)cc3)C[C@@]21C`, in data set [3], the “LogS(mol/L)” value is -5.22 mol/L and the Class was 6 (Practically insoluble or insoluble (6)).

`CCC(C)n1ncn(-c2ccc(N3CCN(c4ccc(OC[C@H]5CO[C@](Cn6cncn6)(c6ccc(Cl)cc6Cl)O5)cc4)CC3)cc2)c1=O` (stereo partly shown): in data set [3], the “LogS(mol/L)” value is given as -8.98 mol/L and the Class is listed as 6 (Practically insoluble or insoluble (6)).

Turning to `COc1ccc2[nH]c([S+]([O-])Cc3ncc(C)c(OC)c3C)nc2c1` (stereo not shown), in data set [3], the “LogS(mol/L)” value was -3.7 mol/L and the Class was 6 (Practically insoluble or insoluble (6)).

With `O=C(c1ccc(OCCN2CCCCC2)cc1)c1c(-c2ccc(O)cc2)sc2cc(O)ccc12`, the Class in data set [3] is 6 (Practically insoluble or insoluble (6)).

With `O=c1[nH]cnc2c1ncn2[C@H]1CC[C@@H](CO)O1` [O=c1[nH]cnc2c1ncn2[C@H]1CC[C@@H](CO)O1], the Class in data set [3] is listed as 3 (Sparingly soluble (3)).

As for `CC(C)C[C@H]1C(=O)N2CCC[C@H]2[C@]2(O)O[C@](NC(=O)[C@@H]3C=C4c5cccc6[nH]c(Br)c(c56)C[C@H]4N(C)C3)(C(C)C)C(=O)N12`, in data set [3], the “LogS(mol/L)” value is -5.5 mol/L and the Class was 6 (Practically insoluble or insoluble (6)).
